Legend:
[1] = test system: erythropoietic progenitor cells; conditions: in vitro cell culture, presence of hematopoietic stimulating hormones; Table 1; cited from earlier work
[2] = general knowledge; cited from earlier work
[3] = test system: late erythrocytic progenitor cells (CFU-e); assay: Differentiation and proliferation of late erythrocytic progenitor cells (CFU-e), cluster colony formation; format: cell-based, mouse (BDF1-strain); conditions: 20 μg/ml, Runs 2 to 4; for Number of colonies formed in the dolichols-added group (CFU-e): 2 days, erythropoietin 0.25 unit, mean ± S.E., 6 replicas, solvent controls 124.2 ± 2.7, 246.0 ± 5.0, 124.7 ± 2.9
Description: (§1) The mouse bone marrow cells used in the following experiments were all prepared as follows:
(§2) BDF1 -strain mice (female, 8 to 10 weeks old) were killed by cervical dislocation, and the femurs were collected under sterile conditions. The bone marrow cells were flushed out from the femurs with α-medium, and formed into a single cell suspension by repeated aspiration with a 26-gauge needle fitted to a 1 ml-syringe. The cells were washed two times with α-medium by centrifugation at 200×G for 5 minutes and used in the following experiments.
In accordance with the method of Murphy et al. mentioned above, mouse bone marrow cells were plated at 2.5×10^4 nuclear cells into 0.5 ml of α-medium containing 0.25 unit of erythropoietin, 30% fetal bovine serum, 1% bovine serum albumin, 0.1 mM 2-mercaptoethanol and 0.4% methyl cellulose with 10 μg of dolichol dissolved in 1 μl of ethanol, 10 μg of dolichyl phosphate dispersed in 0.5 μl of dimethyl sulfoxide, 1 μl of ethanol or 0.5 μl of dimethyl sulfoxide in a 16 mm.phi. tissue culture plate, and incubated at 37° C. in a humidified atmosphere of 5% carbon dioxide in air for 2 days. The number of cluster colonies consisting of 8 to 64 erythroblasts derived from CFU-e in the tissue culture plate was scored with an inverted microscope. The experiment was carried out by 6 replica assays for each group, and the average number of the colonies formed was determined. The results are shown in Table 3, in the rows of Runs 2 to 4.

sea urchin embryos = conditions: compactin added to the culture of the embryos; cited from earlier work
[4] = test system: dolichol biosynthesis in spleen; conditions: phenylhydrazine subcutaneous (induced anemia); cited from earlier work
[5] = test system: early erythrocytic progenitor cells (BFU-e); assay: Differentiation and proliferation of early erythrocytic progenitor cells (BFU-e), burst colony formation; format: cell-based, mouse (BDF1-strain); conditions: 20 μg/ml, Run 1
Description: as §1, §2
In accordance with the method of Murphy et al. (In Vitro Aspects of Erythropoiesis, page 262, Sringer-Verlag, 1978), mouse bone marrow cells were plated at 2×10^5 nuclear cells into 1 ml of α-medium containing 1 unit of erythropoietin, 30% fetal bovine serum, 1% bovine serum albumin, 0.1 mM 2-mercaptoethanol and 0.8% methyl cellulose with 20 μg of dolichyl phosphate dispersed in 1 μl of dimethyl sulfoxide or 1 μl of dimethyl sulfoxide in a 35 mm.phi. tissue culture plate, and incubated at 37° C. in a humidified atmosphere of 5% carbon dioxide in air for 9 days. The number of burst colonies consisting of more than 500 erythroblasts derived from BFU-e in the tissue culture plate was scored with an inverted microscope. The experiment was carried out by 6 replica assays for each group, and the average number of the colonies formed was determined.

[6] = test system: granulocyte-macrophage progenitor cells (CFU-c); assay: Differentiation and proliferation of granulocyte-macrophage progenitor cells (CFU-c), colony formation; format: cell-based, mouse (BDF1-strain); conditions: printed 20 g/ml (method: 20 μg in 1 ml), Run 5
Description: as §1, §2
In accordance with the method of Worton et al. [R. G. Worton et al., J. Cell Physiol., 74, 171 (1969)], mouse bone marrow cells were plated at 1×10^5 nuclear cells into 1 ml of α-medium containing 10% L cell-conditioned medium as source of colony stimulating factor, 20% fetal bovine serum and 0.8% methyl cellulose with 20 μg of dolichyl phosphate dispersed in 1 μl of dimethyl sulfoxide or 1 μl of dimethyl sulfoxide in a 35 mm.phi. tissue culture plate, and incubated at 37° C. in a humidified atmosphere of 5% carbon dioxide in air for 7 days. The number of colonies consisting of more than 50 cells (granulocytecolonies, macrophage colonies or their mixed colonies) derived from […] was scored with an inverted microscope. The experiment was carried out by 6 replica assays for each group, and the average number of the colonies formed was determined.

erythropoiesis = assay: Erythropoiesis in vivo, 59Fe incorporation in hereditarily anemic mice (Run 7); parameters: species or system mouse (WBB6 F1-W/Wv-strain); conditions: 250 mg/kg once i.p.
Description: Phenylhydrazine was administered to normal mice and hereditarily anemic mice to induce severe hemolytic anemia. Then, the rate of erythropoiesis during recovering of anemia was determined by measuring the rate of radioactive iron (^59 Fe) incorporation into newly formed red blood cells [P. M. Cotes, D. R. Bangham, Nature (London), 191, 1067 (1961)]. The testing method and results are described below.
Dolichyl phosphate in a dose of 250 mg/kg (0.2 ml of an emulsion obtained by emulsifying […] of dolichyl phosphate and 25 mg of sesame oil in 1 ml of a 1% aqueous solution of sodium carboxymethyl cellulose per 20 g of the body weight) was intraperitoneally administered to hereditarily anemic WBB6 F1 -W/Wv-strain mice (6 weeks old, female) on the 1st day of the experiment. A 1% aqueous solution of sodium carboxymethyl cellulose was intraperitoneally administered (0.2 ml/20 g of body weight) to a control group. On the 2nd day, the mice in each group were subcutaneously injected with phenylhydrazine hydrochloride in a dose of 60 mg/kg. […] On the 5th day, 0.5 ml of the whole blood was taken from each mouse, and the ^59 Fe incorporation rates during the period of 48 hours were measured as in Run 6. The experiment was carried out on 6 mice in each group, and the average value of the incorporation rates was calculated.

mice = assay: Acute toxicity of dolichyl phosphate in mice; format: in vivo, mouse (BDF1-strain); conditions: 1000 mg/kg and 2000 mg/kg i.p.; 2nd day of administration
Description: (2) Dolichyl phosphate synthesized in Referential Example 3 below was dissolved in the same amount of sesame oil, and added to a 1% aqueous solution of sodium carboxy methyl cellulose so that the concentration of dolichyl phosphate reached 5% V/V. The resulting emulsion was used in the test.
BDF1 -strain mice (20-23 g, female), 6 per group, were used.

## C[C@@H]1C[C@H]2[C@@H]3CCC4=CC(=O)C=C[C@]4(C)[C@@]3(F)[C@@H](O)C[C@]2(C)[C@@]1(O)C(=O)CO [Dexamethasone]
[1]
  Effect on colony formation of erythropoietic progenitor cells: .uparw.
[2]
  Side-effects: clinically undesirable side-effects such as electrolytic disorders, hypertension, peptic ulcer, diabetes, liver impediments, and masculinization

## CC(C)=CCC/C(C)=C/CC/C(C)=C/CC/C(C)=C\CC/C(C)=C\CC/C(C)=C\CC/C(C)=C\CC/C(C)=C\CC/C(C)=C\CC/C(C)=C\CC/C(C)=C\CC/C(C)=C\CC/C(C)=C\CC/C(C)=C\CC/C(C)=C\CC/C(C)=C\CC/C(C)=C\CC/C(C)=C\CC[C@H](C)CCO [Dolichol (n = 15)]
[3]
  Number of colonies formed in the dolichols-added group (CFU-e): 293.0 ± 6.2
[3]; Mus musculus, 48 h, vs solvent-added control group, read-out: Percent increase (%) of colony formation (CFU-e)
  activation at 20 µg/mL: 19.1%

## CC[C@H](C)C(=O)O[C@H]1CCC=C2C=C[C@H](C)[C@H](CC[C@@H]3C[C@@H](O)CC(=O)O3)[C@H]21 [compactin]
Sea urchin embryos
  Differentiation of sea urchin embryos: did not occur

## NNc1ccccc1 [phenylhydrazine, reference compound]
[4]
  Rate of dolichol biosynthesis in spleen: greatly increased

## Growth hormone: hormone named in Table 1
[1]
  Effect on colony formation of erythropoietic progenitor cells: .uparw.

## Prostaglandin E
[1]
  Effect on colony formation of erythropoietic progenitor cells: .uparw.

## Thyroid hormone
[1]
  Effect on colony formation of erythropoietic progenitor cells: .uparw.

## dolichyl phosphate
[5]; 9 days, erythropoietin 1 unit, mean ± S.E., 6 replicas, solvent control 73.7 ± 3.4
  Number of colonies formed in the dolichols-added group (BFU-e): 99.5 ± 2.4
[5]; vs solvent-added control group
  Percent increase (%) of colony formation (BFU-e): +35.0%
[3]
  Number of colonies formed in the dolichols-added group (CFU-e): 166.7 ± 2.4
[3]; vs solvent-added control group
  Percent increase (%) of colony formation (CFU-e): +33.7%
[6]; 7 days, mean ± S.E., 6 replicas, solvent control 256.8 ± 4.3
  Number of colonies formed in the dolichols-added group (CFU-c): 295.3 ± 4.9
[6]; vs solvent-added control group
  Percent increase (%) of colony formation (CFU-c): +15.0%
erythropoiesis; 48 hours, control group 21.4
  59Fe incorporation rate (%), dolichol administered group: 23.1%
erythropoiesis; percent increase of 59Fe incorporation rate vs control
  Erythropoiesis enhancing ratio (%): +7.9%
mice
  Mortality: no case of death in all of the mice tested

B1: Human chorionic somatomammotropin: hormone named in Table 1 (protein, UniProt P0DML2 27-217, looked up)
Chorionic somatomammotropin …: VQTVPLSRLFDHAMLQAHRAHQLAIDTYQEFEETYIPKDQKYSFLHDSQTSFCFSDSIPTPSNMEETQQKSNLELLRISLLLIESWLEPVRFLRSMFANNLVYDTSDSDDYHLLKDLEEGIQTLMGRLEDGSRRTGQILKQTYSKFDTNSHNHDALLKNYGLLYCFRKDMDKVETFLRMVQCRSVEGSCGF
[1]
  Effect on colony formation of erythropoietic progenitor cells: .uparw.

Reference: patent publication US4812443A, “Methods for enhancing differentiation and proliferation of hematopoietic progenitor cells” (Kuraray Co., Ltd., priority 1984, dated 1989)
